Test system: beta hCG
Experiment: Beta hCG assay, AK-Ab1 particle + HRP-Ab2 conjugate
Type: biochemical, human
Details: ascorbic acid employed
Experimental: This example describes a method of detecting beta-human chorionic gonadotrophin (beta hCG) using an AK-Abl particle prepared as set forth in Example 3 and a HRP-Ab2 conjugate prepared as set forth in Example 4 where Ab2 represents an antibody to beta hCG. This method employed ascorbic acid to decrease background signal.
HRP-Ab2 conjugate suspensions were prepared at 1.0 μg/mL and contained either 0 or 1 mM ascorbic acid. Samples consisted of human serum samples with the indicated mounts of beta hCG added or no beta hCG as a control. The test procedure consisted of adding 20 μL of 1.0 μg/mL HRP-Ab2 conjugate and 30 μL of MES buffer containing 1 mg/mL BSA and 1 mg/mL MIgG, pH 5.9 to the reaction vessel. Next, 25 μL of patient serum sample was added, followed by 25 μL of 10 mg/mL AK-Abl conjugate suspension thereby obtaining 100 μL of total volume in the reaction vessel. After 15.2 minutes, 100 μL of trigger solution A was added to the reaction vessel and the light intensity was recorded on the modified DxI instrument. Chemiluminescence intensity is expressed in Relative Light Units (RLU).

O=C1O[C@H]([C@@H](O)CO)C(O)=C1O [Ascorbic Acid, Ascorbic acid]
RLU (S0, beta hCG 0 IU/mL): 1,031 RLU
RLU (S1, beta hCG 4.35 IU/mL): 7,288 RLU
S/S0 (S1, beta hCG 4.35 IU/mL): 7
RLU (S2, beta hCG 20.81 IU/mL): 35,320 RLU
S/S0 (S2, beta hCG 20.81 IU/mL): 34
RLU (S3, beta hCG 127.285 IU/mL): 298,108 RLU
S/S0 (S3, beta hCG 127.285 IU/mL): 289
RLU (S4, beta hCG 413.455 IU/mL): 1,293,751 RLU
S/S0 (S4, beta hCG 413.455 IU/mL): 1,255
RLU (S5, beta hCG 775.805 IU/mL): 2,225,779 RLU
S/S0 (S5, beta hCG 775.805 IU/mL): 2,159

— patent publication US20100273189A1, “NON SEPARATION ASSAYS WITH SELECTIVE SIGNAL INHIBITORS” (BECKMAN COULTER, INC., priority 2009, published 2010)
